Reference: patent US8137705B2 (priority 2005, dated 2012)

Tests used:
Type in all cases: cell-based
E. coli O157:H7 = E. coli O157:H7 counts in water containing rumen content or feces treated with chemicals or chemical combinations; conditions: for E. coli O157:H7 counts (log10 cfu/ml) at min 0 / E. coli O157:H7 counts (log10 cfu/ml) at min 2 / E. coli O157:H7 counts (log10 cfu/ml) at min 5 / E. coli O157:H7 counts (log10 cfu/ml) at min 10 / E. coli O157:H7 counts (log10 cfu/ml) at min 20 / E. coli O157:H7 counts (log10 cfu/ml) at min 30 / E. coli O157:H7 counts (log10 cfu/ml) at min 60 / E. coli O157:H7 counts (log10 cfu/ml) at min 120: 21° C.; for E. coli O157:H7 counts (log10 cfu/ml) at min 0: 0 min; for E. coli O157:H7 counts (log10 cfu/ml) at min 2: 2 min; for E. coli O157:H7 counts (log10 cfu/ml) at min 5: 5 min; for E. coli O157:H7 counts (log10 cfu/ml) at min 10: 10 min; for E. coli O157:H7 counts (log10 cfu/ml) at min 20: 20 min; for E. coli O157:H7 counts (log10 cfu/ml) at min 30: 30 min; for E. coli O157:H7 counts (log10 cfu/ml) at min 60: 60 min; for E. coli O157:H7 counts (log10 cfu/ml) at min 120: 120 min
E. coli O26:H11 = E. coli O26:H11 counts in water containing rumen content or feces treated with chemical combinations; conditions: 21° C.; for E. coli O26:H11 counts (log10 cfu/ml) at min: 0: 0 min; for E. coli O26:H11 counts (log10 cfu/ml) at min: 2: 2 min; for E. coli O26:H11 counts (log10 cfu/ml) at min: 5: 5 min; for E. coli O26:H11 counts (log10 cfu/ml) at min: 10: 10 min; for E. coli O26:H11 counts (log10 cfu/ml) at min: 20: 20 min; for E. coli O26:H11 counts (log10 cfu/ml) at min: 30: 30 min; for E. coli O26:H11 counts (log10 cfu/ml) at min: 60: 60 min; for E. coli O26:H11 counts (log10 cfu/ml) at min: 120: 120 min
E. coli O111:NM = E. coli O111:NM counts in water containing rumen content or feces treated with chemical combinations; conditions: 21° C.; for E. coli O111:NM counts (log10 cfu/ml) at min 0: 0 min; for E. coli O111:NM counts (log10 cfu/ml) at min 2: 2 min; for E. coli O111:NM counts (log10 cfu/ml) at min 5: 5 min; for E. coli O111:NM counts (log10 cfu/ml) at min 10: 10 min; for E. coli O111:NM counts (log10 cfu/ml) at min 20: 20 min; for E. coli O111:NM counts (log10 cfu/ml) at min 30: 30 min; for E. coli O111:NM counts (log10 cfu/ml) at min 60: 60 min; for E. coli O111:NM counts (log10 cfu/ml) at min 120: 120 min
[1] = water containing feces (20:1, v/w)
[2] = water containing rumen content (10:1, v/w)

With `CCCCCCCC(=O)O` [0.05% caprylic acid, caprylic acid] the “inactivation of E. coli O157:H7 within 20 minutes” value (E. coli O157:H7; butyric acid >2%, caprylic acid >0.1%, data not shown) was “substantial inactivation”, the “E. coli O157:H7 counts (log10 cfu/ml) at min 0” value (E. coli O157:H7; [1]) was 6.0 log10 cfu/ml and the “E. coli O157:H7 counts (log10 cfu/ml) at min 2” value (E. coli O157:H7; [1]) was 5.6 log10 cfu/ml. For the same compound, the “E. coli O157:H7 counts (log10 cfu/ml) at min 5” value (E. coli O157:H7; [1]) was 4.3 log10 cfu/ml, the “E. coli O157:H7 counts (log10 cfu/ml) at min 10” value (E. coli O157:H7; [1]) was 2.3 log10 cfu/ml and the “E. coli O157:H7 counts (log10 cfu/ml) at min 20” value (E. coli O157:H7; [1]) was 2.0 log10 cfu/ml. For the same compound, the “E. coli O157:H7 counts (log10 cfu/ml) at min 30” value (E. coli O157:H7; [1]) was 2.0 log10 cfu/ml, the “E. coli O157:H7 counts (log10 cfu/ml) at min 60” value (E. coli O157:H7; [1]) was 2.0 log10 cfu/ml and the “E. coli O157:H7 counts (log10 cfu/ml) at min 120” value (E. coli O157:H7; [1]) was 1.7 log10 cfu/ml. For the same compound, the “E. coli O157:H7 counts (log10 cfu/ml) at min 0” value (E. coli O157:H7; [2]) was 6.0 log10 cfu/ml, the “E. coli O157:H7 counts (log10 cfu/ml) at min 2” value (E. coli O157:H7; [2]) was 6.0 log10 cfu/ml and the “E. coli O157:H7 counts (log10 cfu/ml) at min 5” value (E. coli O157:H7; [2]) was 6.0 log10 cfu/ml. For the same compound, the “E. coli O157:H7 counts (log10 cfu/ml) at min 10” value (E. coli O157:H7; [2]) was 5.9 log10 cfu/ml, the “E. coli O157:H7 counts (log10 cfu/ml) at min 20” value (E. coli O157:H7; [2]) was 6.0 log10 cfu/ml and the “E. coli O157:H7 counts (log10 cfu/ml) at min 30” value (E. coli O157:H7; [2]) was 5.9 log10 cfu/ml. For the same compound, the “E. coli O157:H7 counts (log10 cfu/ml) at min 60” value (E. coli O157:H7; [2]) was 5.9 log10 cfu/ml, the “E. coli O157:H7 counts (log10 cfu/ml) at min 120” value (E. coli O157:H7; [2]) was 6.0 log10 cfu/ml and the “E. coli O26:H11 counts (log10 cfu/ml) at min: 0” value (E. coli O26:H11; [1]) was 5.5 log10 cfu/ml. For the same compound, the “E. coli O26:H11 counts (log10 cfu/ml) at min: 2” value (E. coli O26:H11; [1]) was 5.4 log10 cfu/ml, the “E. coli O26:H11 counts (log10 cfu/ml) at min: 5” value (E. coli O26:H11; [1]) was 5.5 log10 cfu/ml and the “E. coli O26:H11 counts (log10 cfu/ml) at min: 10” value (E. coli O26:H11; [1]) was 5.5 log10 cfu/ml. For the same compound, the “E. coli O26:H11 counts (log10 cfu/ml) at min: 20” value (E. coli O26:H11; [1]) was 5.3 log10 cfu/ml, the “E. coli O26:H11 counts (log10 cfu/ml) at min: 30” value (E. coli O26:H11; [1]) was 5.2 log10 cfu/ml and the “E. coli O26:H11 counts (log10 cfu/ml) at min: 60” value (E. coli O26:H11; [1]) was 5.2 log10 cfu/ml. The “E. coli O26:H11 counts (log10 cfu/ml) at min: 120” value (E. coli O26:H11; [1]) was 5.0 log10 cfu/ml, the “E. coli O26:H11 counts (log10 cfu/ml) at min: 0” value (E. coli O26:H11; [2]) was 5.3 log10 cfu/ml and the “E. coli O26:H11 counts (log10 cfu/ml) at min: 2” value (E. coli O26:H11; [2]) was 5.4 log10 cfu/ml. For the same compound, the “E. coli O26:H11 counts (log10 cfu/ml) at min: 5” value (E. coli O26:H11; [2]) was 5.2 log10 cfu/ml, the “E. coli O26:H11 counts (log10 cfu/ml) at min: 10” value (E. coli O26:H11; [2]) was 5.4 log10 cfu/ml and the “E. coli O26:H11 counts (log10 cfu/ml) at min: 20” value (E. coli O26:H11; [2]) was 5.3 log10 cfu/ml. For the same compound, the “E. coli O26:H11 counts (log10 cfu/ml) at min: 30” value (E. coli O26:H11; [2]) was 5.4 log10 cfu/ml, the “E. coli O26:H11 counts (log10 cfu/ml) at min: 60” value (E. coli O26:H11; [2]) was 5.4 log10 cfu/ml and the “E. coli O26:H11 counts (log10 cfu/ml) at min: 120” value (E. coli O26:H11; [2]) was 5.4 log10 cfu/ml. For the same compound, the “E. coli O111:NM counts (log10 cfu/ml) at min 0” value (E. coli O111:NM; [1]) was 5.7 log10 cfu/ml, the “E. coli O111:NM counts (log10 cfu/ml) at min 2” value (E. coli O111:NM; [1]) was 5.5 log10 cfu/ml and the “E. coli O111:NM counts (log10 cfu/ml) at min 5” value (E. coli O111:NM; [1]) was 5.7 log10 cfu/ml. For the same compound, the “E. coli O111:NM counts (log10 cfu/ml) at min 10” value (E. coli O111:NM; [1]) was 5.5 log10 cfu/ml, the “E. coli O111:NM counts (log10 cfu/ml) at min 20” value (E. coli O111:NM; [1]) was 5.6 log10 cfu/ml and the “E. coli O111:NM counts (log10 cfu/ml) at min 30” value (E. coli O111:NM; [1]) was 5.7 log10 cfu/ml. For the same compound, the “E. coli O111:NM counts (log10 cfu/ml) at min 60” value (E. coli O111:NM; [1]) was 5.5 log10 cfu/ml, the “E. coli O111:NM counts (log10 cfu/ml) at min 120” value (E. coli O111:NM; [1]) was 5.4 log10 cfu/ml and the “E. coli O111:NM counts (log10 cfu/ml) at min 0” value (E. coli O111:NM; [2]) was 5.6 log10 cfu/ml. The “E. coli O111:NM counts (log10 cfu/ml) at min 2” value (E. coli O111:NM; [2]) was 5.5 log10 cfu/ml, the “E. coli O111:NM counts (log10 cfu/ml) at min 5” value (E. coli O111:NM; [2]) was 5.7 log10 cfu/ml and the “E. coli O111:NM counts (log10 cfu/ml) at min 10” value (E. coli O111:NM; [2]) was 5.5 log10 cfu/ml. The “E. coli O111:NM counts (log10 cfu/ml) at min 20” value (E. coli O111:NM; [2]) was 5.8 log10 cfu/ml, the “E. coli O111:NM counts (log10 cfu/ml) at min 30” value (E. coli O111:NM; [2]) was 5.6 log10 cfu/ml and the “E. coli O111:NM counts (log10 cfu/ml) at min 60” value (E. coli O111:NM; [2]) was 5.4 log10 cfu/ml. For the same compound, the “E. coli O111:NM counts (log10 cfu/ml) at min 120” value (E. coli O111:NM; [2]) was 5.5 log10 cfu/ml.
